Reference: US20080194585A1, “Fungicidal Pyrazine Derivatives” (priority 2005, published 2008)
Marks after values point to notes of the source that are not given here.

Key:
Conditions in all cases: 100 = 100% disease control, 0 = no control
[1] = tested on: fusarium graminearium; assay: Test I: wheat head scab, preventive spray on wheat seedlings
Experimental: (the causal agent of wheat head scab) and incubated in a saturated atmosphere at 20° C. for 72 h, and then moved to a growth chamber at 22° C. for 5 days, after which disease ratings were made.

[2] = tested on: Erysiphe graminis f. sp. tritici; assay: Test L: wheat powdery mildew, preventive spray on wheat seedlings
[3] = tested on: Puccinia recondita f. sp. tritici; assay: Test K: wheat leaf rust, preventive spray on wheat seedlings
[4] = tested on: Colletotrichum orbiculare; assay: Test B: cucumber Colletotrichum anthracnose, preventive spray on cucumber seedlings
[5] = tested on: Botrytis cinerea; assay: Test E: tomato botrytis, preventive spray on tomato seedlings
[6] = tested on: Plasmopara viticola; assay: Test D: grape downy mildew, spray after inoculation of grape seedlings; assay type: in vivo
Text: Upon removal, disease ratings were made. […] A dash (-) indicates no test results.

[7] = tested on: Pythium aphanidermatum; assay: Test A: bluegrass pythium blight, preventive spray on bluegrass seedlings
[8] = tested on: Septoria tritici; assay: Test J: wheat leaf blotch, preventive spray on wheat seedlings; assay type: in vivo
Text: A dash (-) indicates no test results.

[9] = tested on: Phytophthora infestans; assay: whole plant or invertebrate; assay type: in vivo
[10] = tested on: Septoria nodorum; assay: Test H: wheat glum blotch, preventive spray on wheat seedlings
Experimental: (the causal agent of wheat glum blotch) and incubated in a saturated atmosphere at 20° C. for 48 h, and then moved to a growth chamber at 22° C. for 5 days, after which disease ratings were made.

[11] = tested on: Rhizoctonia oryzae; assay: Test G: turf brown patch, preventive spray on creeping bent grass seedlings
Experimental: (the causal agent of turf brown patch) and incubated in a saturated atmosphere at 27° C. for 24 h, and then moved to a growth chamber at 27° C. for 5 days, after which disease ratings were made.

Structure (SMILES) | Test I disease control rating ([1]; 40 ppm (marked *)) | Test L disease control rating ([2]; 40 ppm (marked *)) | Test K disease control rating ([3]; 40 ppm (marked *)) | Test B disease control rating ([4]; 40 ppm (marked *)) | Test E disease control rating ([5]; 40 ppm (marked *)) | Test D disease control rating ([6]; 40 ppm (marked *)) | Test A disease control rating ([7]; 40 ppm (marked *)) | Test J disease control rating ([8]; 40 ppm (marked *)) | Test F disease control rating ([9]; 40 ppm (marked *)) | Test I disease control rating ([1]; 200 ppm) | Test L disease control rating ([2]; 200 ppm) | Test K disease control rating ([3]; 200 ppm) | Test B disease control rating ([4]; 200 ppm) | Test E disease control rating ([5]; 200 ppm) | Test D disease control rating ([6]; 200 ppm) | Test A disease control rating ([7]; 200 ppm) | Test J disease control rating ([8]; 200 ppm) | Test F disease control rating ([9]; 200 ppm) | Test H disease control rating ([10]; 200 ppm) | Test G disease control rating ([11]; 200 ppm) | also measured
O=c1c(-n2cccn2)nc(Cl)c(-c2c(F)cc(F)cc2F)n1-c1ccccc1 [compound 287] | 97* % | 99* % | 99* % | 99* % | 100* % | 47* % | 56* % | 100* % | 46* % | – | – | – | – | – | – | – | – | – | – | – | Test H disease control rating ([10]; 40 ppm (marked *)): 99* %; Test G disease control rating ([11]; 40 ppm (marked *)): 93* %
CCC(C)Cn1c(-c2c(F)cccc2F)c(Cl)nc(C(=O)NC)c1=O (stereo not drawn) [compound 297] | – | – | – | – | – | – | – | – | – | 75% | 97% | 98% | 73% | 99% | 88% | 0% | 99% | 92% | 100% | 78% | –
CCCNC(=O)c1nc(Cl)c(-c2c(F)cccc2F)n(CC(C)CC)c1=O (stereo not drawn) [compound 299] | – | – | – | – | – | – | – | – | – | 100% | 95% | 100% | 40% | 99% | 40% | 69% | 100% | 90% | 99% | 31% | –
CC(C)c1c(Cl)nc(-n2cccn2)c(=O)n1Cc1ccccc1 [compound 304] | – | – | – | – | – | – | – | – | – | 0% | 46% | 100% | 0% | 99% | 0% | 0% | 100% | 49% | 0% | 31% | –
Cc1ccn(-c2nc(Cl)c(C(C)C)n(Cc3ccccc3)c2=O)n1 [compound 305] | – | – | – | – | – | – | – | – | – | 0% | 52% | 97% | 0% | 99% | 0% | 0% | 93% | 50% | 0% | 16% | –
CC(C)c1c(Cl)nc(-n2cccn2)c(=O)n1-c1ccccc1 [compound 306] | – | – | – | – | – | – | – | – | – | 0% | 0% | 51% | 0% | 0% | 0% | 0% | 44% | 30% | 0% | 0% | –
Cc1ccn(-c2nc(Cl)c(C(C)C)n(-c3ccccc3)c2=O)n1 [compound 307] | – | – | – | – | – | – | – | – | – | 49% | 0% | 51% | 0% | 88% | 0% | 0% | 20% | 84% | 0% | 0% | –
COC(=O)Cn1c(-c2c(F)cccc2F)c(Cl)nc(-n2ccc(C)n2)c1=O [compound 308] | 0* % | 0* % | 9* % | 0* % | 0* % | 0* % | 0* % | 29* % | 0* % | – | – | – | – | – | – | – | – | – | – | – | Test H disease control rating ([10]; 40 ppm (marked *)): 0* %; Test G disease control rating ([11]; 40 ppm (marked *)): 0* %
CSCC(C)n1c(-c2c(F)cccc2F)c(Cl)nc(-n2ccc(C)n2)c1=O (stereo not drawn) [compound 309] | 0* % | 0* % | 0* % | 0* % | 99* % | 0* % | 0* % | 5* % | 0* % | – | – | – | – | – | – | – | – | – | – | – | Test H disease control rating ([10]; 40 ppm (marked *)): 0* %; Test G disease control rating ([11]; 40 ppm (marked *)): 0* %
COCCn1c(-c2c(F)cccc2F)c(Cl)nc(-n2ccc(C)n2)c1=O [compound 310] | 0* % | 0* % | 74* % | 0* % | 0* % | 0* % | 0* % | 42* % | 0* % | – | – | – | – | – | – | – | – | – | – | – | Test H disease control rating ([10]; 40 ppm (marked *)): 64* %; Test G disease control rating ([11]; 40 ppm (marked *)): 0* %
CSCCn1c(-c2c(F)cccc2F)c(Cl)nc(-n2ccc(C)n2)c1=O [compound 311] | 0* % | 0* % | 74* % | 0* % | 94* % | 0* % | 0* % | 74* % | 0* % | – | – | – | – | – | – | – | – | – | – | – | Test H disease control rating ([10]; 40 ppm (marked *)): 0* %; Test G disease control rating ([11]; 40 ppm (marked *)): 0* %
COCC(C)n1c(-c2c(F)cccc2F)c(Cl)nc(-n2cccc2C#N)c1=O (stereo not drawn) [compound 312] | – | – | – | – | – | – | – | – | – | 0% | 0% | 0% | 0% | 0% | 40% | 0% | 13% | 9% | 0% | 0% | –
CC(C)Cn1c(-c2c(F)cccc2F)c(Cl)nc(N2CCCC2)c1=O [compound 314] | – | – | – | – | – | – | – | – | – | 18% | 0% | 0% | 0% | 0% | 0% | 88% | 0% | 0% | 0% | 0% | –
CC(C)Cn1c(C2CC2)c(Cl)nc(-n2cccn2)c1=O [compound 315] | – | – | – | – | – | – | – | – | – | 0% | 0% | 0% | 0% | 0% | 0% | 69% | 7% | 0% | 0% | 0% | –
CCc1c(Cl)nc(-n2cccn2)c(=O)n1CC(C)C [compound 316] | – | – | – | – | – | – | – | – | – | 0% | 0% | 0% | 0% | 0% | 0% | 54% | 0% | 0% | 0% | 0% | –
CCCCCc1c(Cl)nc(-n2cccn2)c(=O)n1CC(C)C [compound 317] | – | – | – | – | – | – | – | – | – | 0% | 0% | 41% | 0% | 0% | 0% | 0% | 28% | 0% | 0% | 0% | –
CC(C)Cn1c(-c2c(Cl)cc(Cl)cc2Cl)c(Cl)nc(-n2cccn2)c1=O [compound 318] | 0* % | 67* % | 97* % | 82* % | 99* % | 0* % | 0* % | 100* % | 0* % | – | – | – | – | – | – | – | – | – | – | – | Test H disease control rating ([10]; 40 ppm (marked *)): 97* %; Test G disease control rating ([11]; 40 ppm (marked *)): 78* %
O=c1c(-n2cccn2)nc(Cl)c(-c2c(F)cc(F)cc2F)n1-c1ccccc1F [compound 320] | 0* % | 96* % | 99* % | 88* % | 99* % | 0* % | 74* % | 100* % | 0* % | – | – | – | – | – | – | – | – | – | – | – | Test H disease control rating ([10]; 40 ppm (marked *)): 100* %; Test G disease control rating ([11]; 40 ppm (marked *)): 80* %
